According to US20030018071A1, “Method and compositions for treating fibrotic diseases” (priority 2002, published 2003):
Values after ≈ are worked out from the molar mass of the structure shown.

Legend:
[1] = tested on: human fetal lung fibroblasts; test: Fibroblast chemotaxis toward fibronectin (Boyden blindwell chamber); type: cell-based
Experimental: Since the activity of a PDE4 inhibitor should be dependent on endogenous cyclic AMP levels, a study was designed to determine if endogenous prostaglandin production rendered cells susceptible to the effects of Ariflo. To accomplish this, human fetal lung fibroblasts were cultured and, after achieving confluence, were incubated for 60 minutes with and without indomethacin (2×10^−6 M) to inhibit cyclooxygenase. Fibroblasts were then trypsinized and placed in the upper portion of a Boyden blindwell chemotaxis chamber. Fibronectin, 20 μg/ml, was placed in the lower portion of the chamber as the chemoattractant. Indomethacin (2×10^−6 M) was added to the upper side of the chemotaxis chamber. […] In three separate experiments, the concentration of Ariflo required to inhibit chemotaxis by 50% was 4.9±2.5 μg/ml. In the presence of indomethacin, Ariflo inhibited chemotaxis only at the highest concentration tested 10 μg/ml reducing the response to 58.7±21.0% of control (p<005) compared to indomethacin. […] Since cyclooxygenase activity and prostaglandin production can be modulated by a variety of mediators present in an inflammatory milieu, fibroblasts in such a setting may be particularly sensitive to the inhibitory effects of Ariflo. Such an effect has therapeutic value in fibrotic disorders.

[2] = developed as an antidepressant; cited from earlier work

SMILES: COc1ccc([C@]2(C#N)CC[C@@H](C(=O)O)CC2)cc1OC1CCCC1 [Ariflo, cis 4-cyano-4-(3-cyclopentyloxy-4-methoxyphenyl)cyclohexan-1-carboxylic acid]
- activity at 10 µg/mL ([1]; Homo sapiens, Fibroblast, Ariflo 10 μg/ml in the presence of indomethacin 2×10^−6 M, compared to indomethacin, read-out: chemotaxis response, % of control): 58.7 ± 21%
- IC50 ([1]; Homo sapiens, Fibroblast, control fibroblasts (no indomethacin), fibronectin 20 μg/ml as chemoattractant, three separate experiments, read-out: concentration required to inhibit chemotaxis by 50%): 4.9 ± 2.5 µg/mL (≈ 14.3 µM)
- effect on chemotaxis (in words) ([1]; added to control fibroblasts): inhibited chemotaxis in a concentration dependent manner

SMILES: COc1ccc2c(c1)c(CC(=O)O)c(C)n2C(=O)c1ccc(Cl)cc1 [Indomethacin, indomethacin, reference compound]
- chemotaxis, % compared to control ([1]; indomethacin alone 2×10^−6 M, fibronectin 20 μg/ml): 159±33%

SMILES: COc1ccc(C2CNC(=O)C2)cc1OC1CCCC1 (centres unmarked) [rolipram]
- side effects in clinical studies [2]: has psychotropic activity and produces gastrointestinal effects, e.g., pyrosis, nausea and emesis
